Seven compounds from ChEMBL document CHEMBL1201862, “PubChem BioAssay data set” (2004) can be followed below.

Molecules are shown by their SMILES.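 Tested at 5 concentrations; 48 h exposure; 96-well plates; endpoints linearly interpolated, else capped at highest concentration. GI50 marks 50% less growth.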 Calls of active or inactive are those of the source. Cut-off read from the data, not from the text of the source: active = GI50 up to about 1.1 µM and inactive = higher.

Holding throughout (assay): NCI-60 cell line screen, 48 h
Test [1] concerns NCI-H460.
Test [2] deals with UACC-62.
Test [3] deals with LOX IMVI.
For test [4], the system named is SK-MEL-2.
The subject of test [5] is SK-MEL-5.
Test [6] relates to SF-295.
For test [7], the system named is HOP-62.
The test system of test [8] is UO-31.
Test [9] deals with A549.
Test [10] relates to HCC 2998.
Test [11] relates to CAKI-1.
For test [12], the system named is EKVX.
Test [13] deals with CCRF-CEM.
Test [14] deals with SNB-19.
Test [15] deals with OVCAR-5.
The subject of test [16] is KM12.
For test [17], the system named is Malme-3M.
For test [18], the system named is COLO 205.
The subject of test [19] is SK-OV-3.
The test system of test [20] is MOLT-4.

On to `CCOC(=O)NNC(=O)NC12CC3CC(CC(C3)C1)C2`, for which the GI50 in [1], in test [2], in [3], in test [4], in test [5] and in test [6] was > 100 µM (inactive) in each case. The GI50 in [7], in test [8], in test [9], in [10], in [11] and in test [12] was > 100 µM (inactive) throughout. Moreover, the GI50 in [13], in test [14], in test [15], in test [16], in test [17] and in [18] was > 100 µM (inactive) each time. For the same compound, the GI50 in [19] and in [20] was > 100 µM (inactive) each time.
As for `CCOC(=O)NC(NNc1ccc([N+](=O)[O-])cc1[N+](=O)[O-])(C(F)(F)F)C(F)(F)F`, the GI50 was 27.5 µM (inactive) in test [1]; 74.5 µM (inactive) in [2]; 60.1 µM (inactive) in test [3]; 47 µM (inactive) in test [4]; 60.8 µM (inactive) in [5]; 59.7 µM (inactive) in [6]. Moreover, the GI50 in [7] is 32.9 µM (inactive); in test [8], 21.9 µM (inactive); in test [9], 47 µM (inactive); in [10], 23.3 µM (inactive); in test [11], 33 µM (inactive); in [12] it was 41.8 µM (inactive). The GI50 was 20.6 µM (inactive) in [13]; 35.2 µM (inactive) in test [14]; 46 µM (inactive) in test [15]; 29.4 µM (inactive) in test [16]; 53.3 µM (inactive) in test [17]; 16.1 µM (inactive) in test [18]. For the same compound, the results for the GI50 in test [19] and in test [20] were 23.4 µM (inactive) and 28.1 µM (inactive), respectively.
As to `Cc1c2ccncc2cc2c1sc1ccncc12`, the GI50 in test [1] was 0.485 µM (active); in [2] it was 2.16 µM (inactive); in test [3] it was 1.57 µM (inactive); in [4], 6.17 µM (inactive); in test [5] it was 1.68 µM (inactive); in [6], 1.96 µM (inactive). The GI50 in test [7] is 1.74 µM (inactive); in test [8], 1.27 µM (inactive); in test [9], 0.845 µM (active); in test [10] it was 5.52 µM (inactive); in test [11], 2.01 µM (inactive); in test [12], 3.17 µM (inactive). Further, the GI50 in test [13] was 1.21 µM (inactive); in test [14], 2.74 µM (inactive); in test [15] it was 3.18 µM (inactive); in [16], 3.55 µM (inactive); in [17], 4.16 µM (inactive); in test [18] it was 3.24 µM (inactive). For the same compound, the GI50 in test [19] is 2.23 µM (inactive); in [20] it was 0.468 µM (active).
`CC(C)=CCC/C(C)=C/COc1c2ccoc2cc2oc(=O)ccc12` [BERGAMOTTIN]: the GI50 in test [1] was 29.9 µM (inactive); in test [2], 10.7 µM (inactive); in [3], 21 µM (inactive); in test [4] it was 16 µM (inactive); in test [5], 14.9 µM (inactive); in test [6], 25.4 µM (inactive). Besides, the GI50 in [7] was 43.4 µM (inactive); in test [8] it was 21.5 µM (inactive); in test [9], 24.9 µM (inactive); in test [10] it was 28.2 µM (inactive); in test [11], 44 µM (inactive); in test [12], 22.2 µM (inactive). For the same compound, the GI50 in test [13] was 18 µM (inactive); in test [14], 32.3 µM (inactive); in test [15], 23.8 µM (inactive); in test [16], 32.7 µM (inactive); in [17], 33.5 µM (inactive); in [18] it was 17.5 µM (inactive). Moreover, the GI50 in [19] is 27.5 µM (inactive); in test [20], 15.4 µM (inactive).
Turning to `CCOC(=O)c1c(N2CCCC2)[nH]c(=O)c(C(c2ccc(OC)cc2)c2c(O)c(C(=O)OCC)c(N3CCCC3)[nH]c2=O)c1O`, the GI50 in test [1] is > 100 µM (inactive); in test [2], > 100 µM (inactive); in [3], > 100 µM (inactive); in test [4], 5 µM (inactive); in test [5], > 100 µM (inactive); in test [6], 25.7 µM (inactive). Also, the GI50 in test [7] was 46.6 µM (inactive); in [8] it was > 100 µM (inactive); in test [9] it was > 100 µM (inactive); in test [10] it was > 100 µM (inactive); in test [11] it was 28.4 µM (inactive); in test [12] it was 44.8 µM (inactive). The GI50 in test [13] is > 100 µM (inactive); in test [14] it was > 100 µM (inactive); in test [15] it was 52.7 µM (inactive); in test [16], > 100 µM (inactive); in test [17], > 100 µM (inactive); in [18], > 100 µM (inactive). The GI50 in [19] and in [20] was > 100 µM (inactive) throughout.
Take `c1ccc([P+](CCCCCCCC[P+](c2ccccc2)(c2ccccc2)c2ccccc2)(c2ccccc2)c2ccccc2)cc1`: the GI50 was 3.25 µM (inactive) in test [1]; 24.1 µM (inactive) in test [2]; 4.2 µM (inactive) in test [3]; 5.69 µM (inactive) in [4]; 8.05 µM (inactive) in test [5]; 6.53 µM (inactive) in test [6]. In addition, the GI50 in test [7] was 3.64 µM (inactive); in [8], > 100 µM (inactive); in [9], 5.73 µM (inactive); in test [10] it was 21.3 µM (inactive); in test [11] it was > 100 µM (inactive); in [12] it was > 61.5 µM (inactive). Also, the GI50 was 9.23 µM (inactive) in test [13]; 0.396 µM (active) in test [14]; 11.2 µM (inactive) in [15]; 1.52 µM (inactive) in test [16]; 16.4 µM (inactive) in test [17]; 0.91 µM (active) in [18]. Further, the results for the GI50 in test [19] and in test [20] were 17.3 µM (inactive) and 10.2 µM (inactive), respectively.
For `CCOC(=O)c1ccc(NC2Oc3cc4c(cc3C(c3cc(OC)c(OC)c(OC)c3)C2C)OCO4)cc1` (stereo not given), the GI50 in [1] is 0.445 µM (active); in [2] it was 0.46 µM (active); in test [3] it was 0.61 µM (active); in [4], 0.675 µM (active); in test [5] it was 0.294 µM (active); in test [6] it was 0.269 µM (active). The GI50 is 0.789 µM (active) in test [7]; 0.351 µM (active) in test [8]; 0.847 µM (active) in test [9]; 2.13 µM (inactive) in test [10]; 0.325 µM (active) in [11]; 4.24 µM (inactive) in [12]. The GI50 in [13] is 0.371 µM (active); in test [14], 0.617 µM (active); in test [15], 3.94 µM (inactive); in test [16], 0.396 µM (active); in test [17], 0.216 µM (active); in [18], 0.236 µM (active). The GI50 is 0.483 µM (active) in test [19] and 0.41 µM (active) in test [20].
